The source of these data is patent US20250059201A1, “CAMPTOTHECIN COMPOUND AND CONJUGATE THEREOF” (priority 2021, published 2025).

Experiment [1] concerns NCI-N87 human gastric cancer cells. The experiment in a line: Comparative study of the activity of camptothecins (CCK-8 cell killing). Format: cell-based. Particulars: Homo sapiens, NCI-N87, 96 h, read-out: Maximum Killing (%), NCI-N87, killing days 4 days. On the procedure:
(§1) KB oral epithelial cancer cells (purchased from: ATCC) were cultured in DMEM medium supplemented with 10% FBS; NCI-N87 human gastric cancer cells (purchased from: ATCC) were cultured in RPMI1640 medium supplemented with 10% FBS; HT29 human colon cancer cells (purchased from: ATCC) were cultured in RPMI1640 medium supplemented with 10% FBS; and BxPC-3 human pancreatic adenocarcinoma cells (purchased from: ATCC) were cultured in RPMI1640 medium supplemented with 10% FBS.
(§2) Using corresponding media described above and in cell plates, the density of KB cells was adjusted to 2×10^4/mL; the density of NCI-N87 cells was adjusted to 5×10^4/mL; the density of HT29 cells was adjusted to 5×10^4/mL, and the cells were plated onto 96-well transparent flat bottom plates, at 100 µL/well, and cultured overnight; and the density of BxPC-3 cells was adjusted to 5×10^4/mL.
(§3) Samples to be detected were diluted to 20 μM with corresponding media, then 5-fold gradient dilution was performed, and 9 concentrations were obtained. A well having cells but with no any sample added was set as the well showing maximum cell growth; and a well having no cells was set as the well of medium background. The diluted samples were added into the cell plates, at 100 μL/well, which were then incubated in a C02 incubator for 96 hours. After the incubation, CCK-8 (purchased from: DOJINDO LABORATORIES) prepared beforehand was added into the plates, at 20 μL/well, and after further 3 hours incubation in the C02 incubator, […] were read on a microplate reader.
(§4) Data obtained was fitted to a four-parameter curve using software Prism7, and equation for calculating maximum killing is: maximum killing (%)=1−(OD450 value of the well showing maximum killing—OD450 value of the well of medium background)/(OD450 value of the well showing maximum cell growth—OD450 value of the cell of medium background)[…].

Experiment [2] relates to BxPC-3 human pancreatic adenocarcinoma cells. Described as above. Format: cell-based. The procedure: as §1, §2, §3, §4

Where “and” joins values, the source holds several entries; their conditions need not be identical. Identical values can stand only once.

As usually defined, the EC50 is the concentration giving half of the maximal effect. A lower EC50 goes with greater potency.

`CC[C@@]1(O)C(=O)OCc2c1cc1n(c2=O)Cc2c-1nc1ccc(N)c3c1c2C(F)(F)CC3` [Compound 3]: the Emax in experiment [1] turned out to be 92.1%; in experiment [2] (Homo sapiens, BXPC-3, 96 h, read-out: Maximum Killing (%), BxPC-3, killing days 4 days), 98%. In experiment [2] (BxPC-3, killing days 4 days), the EC50 was 3.23 nM and 5.82 nM.
